Earlier results in patent US6103723A, “Inhibitors of farnesyl-protein transferase” (Merck & Co., Inc., priority 1998, dated 2000).

System: farnesyl-protein transferase
Conditions: via HMG-CoA reductase inhibition

Compound	Indirect inhibition of farnesyl-protein transferase in vivo
CC[C@H](C)C(=O)O[C@H]1CCC=C2C=C[C@H](C)[C@H](CC[C@@H]3C[C@@H](O)CC(=O)O3)[C@H]21 [compactin]	Indirect inhibition of farnesyl-protein transferase in vivo has been demonstrated
CC[C@H](C)C(=O)O[C@H]1C[C@@H](C)C=C2C=C[C@H](C)[C@H](CC[C@@H]3C[C@@H](O)CC(=O)O3)[C@H]21 [lovastatin]	Indirect inhibition of farnesyl-protein transferase in vivo has been demonstrated
